Source: patent US20110245249A1, “Heterocyclically Substituted Anilinopyrimidines” (Bayer CropScience AG, priority 2008, published 2011)

Experiment: logP by HPLC on reversed-phase columns (EEC Directive 79/831 Annex V.A8)
Type: physicochemical
Conditions: for log p [b]: pH 2.7; for log p [c]: pH 7.8; for log p [a]: pH 2.3
Method: The logP values were measured in accordance with EEC Directive 79/831 Annex V.A8 by HPLC (High Performance Liquid Chromatography) on reversed-phase columns (C 18) using the methods below:
[a] The determination was carried out in the acidic range at pH 2.3 using the mobile phases 0.1% aqueous phosphoric acid and acetronitrile linear gradient from 10% acetonitrile to 95% acetronitrile. [b] The LC-MS determination in the acid range was carried out at pH 2.7 using the mobile phases 0.1% aqueous formic acid and acetonitrile (contains 0.1% formic acid) linear gradient from 10% acetonitrile to 95% acetonitrile. [c] The LC-MS determination in the neutral range was carried out at pH 7.8 using the mobile phases 0.001 molar aqueous ammonium bicarbonate solution and acetonitrile linear gradient from 10% acetonitrile to 95% acetonitrile.

| Compound | chromatographic logP (pH 2.7, logP (pH 2.7)) | log p [b] | log p [c] | other results |
| --- | --- | --- | --- | --- |
| 2-Chloro-{[5-chloro-4-(cyclopropylamino)pyrimidin-2-yl]amino}benzenecarbaldehyde |  |  |  | logP (pH 2.7) (pH 2.7, LC-MS, 0.1% aqueous formic acid/acetonitrile): 2.68 |
| CC(=O)c1cccc(Nc2ncc(C(F)(F)F)c(NC3CCC3)n2)c1 [1-(3-{[4-(Cyclobutylamino)-5-(trifluoromethyl)pyrimidin-2-yl]amino}phenyl)ethanone] | 3.24 |  |  |  |
| CC(=O)c1cccc(Nc2ncc(C(F)(F)F)c(NC3CC3)n2)c1 [1-(3-{[4-(Cyclopropylamino)-5-(trifluoromethyl)pyrimidin-2-yl]amino}phenyl)ethanone] | 2.72 |  |  |  |
| CC(=O)c1cccc(Nc2ncc(Cl)c(NC3CC3)n2)c1 [1-(3-{[5-Chloro-4-(cyclopropylamino)pyrimidin-2-yl]amino}phenyl)ethanone] | 1.75 |  |  |  |
| CCC(=O)c1cccc(Nc2ncc(Cl)c(NC3CC3)n2)c1 [1-(3-{[5-Chloro-4-(cyclopropylamino)pyrimidin-2-yl]amino}phenyl)propan-1-one] | 2.25 |  |  |  |
| CC(=O)c1ccc(Nc2ncc(Cl)c(NC3CC3)n2)cc1 [1-(4-{[5-Chloro-4-(cyclopropylamino)pyrimidin-2-yl]amino}phenyl)ethanone] | 1.93 |  |  |  |
| CC(=O)c1cccc(Nc2ncc(C(F)(F)F)c(NCC3CC3)n2)c1 [1-[3-({4-[(Cyclopropylmethyl)amino]-5-(trifluoromethyl)pyrimidin-2-yl}amino)phenyl]-ethanone] | 2.77 |  |  |  |
| CC1CC1Nc1nc(Nc2cccc(C=O)c2)ncc1Cl (stereo not shown) [3-((5-Chloro-4-[(2-methylcyclopropyl)amino]pyrimidin-2-yl)amino)benzaldehyde] |  |  |  | chromatographic logP (pH 2.3, logP (pH 2.3)): 2.11 |
| COCC(C)Nc1nc(Nc2cccc(C=O)c2)ncc1Cl (stereo not shown) [3-({5-Chloro-4-[(1-methoxypropan-2-yl)amino]pyrimidin-2-yl}amino)benzenecarbaldehyde] | 1.8 |  |  |  |
| O=Cc1cccc(Nc2ncc(Cl)c(NCC(F)(F)F)n2)c1 [3-({5-Chloro-4-[(2,2,2-trifluoroethyl)amino]pyrimidin-2-yl}amino)benzenecarbaldehyde] | 2.46 |  |  |  |
| O=Cc1cccc(Nc2ncc(Cl)c(NCC(F)F)n2)c1 [3-({5-Chloro-4-[(2,2-difluoroethyl)amino]pyrimidin-2-yl}amino)benzenecarbaldehyde] | 2.01 |  |  |  |
| O=Cc1cccc(Nc2ncc(Cl)c(NCC3CC3)n2)c1 [3-({5-Chloro-4-[(cyclopropylmethyl)amino]pyrimidin-2-yl}amino)benzenecarbaldehyde] | 1.94 |  |  |  |
| CN(c1nc(Nc2cccc(C=O)c2)ncc1Cl)C1CC1 [3-({5-Chloro-4-[cyclopropyl(methyl)amino]pyrimidin-2-yl}amino)benzenecarbaldehyde] | 2.84 |  |  |  |
| O=Cc1cccc(Nc2ncc(C(F)(F)F)c(NC3CCC3)n2)c1 [3-{[4-(Cyclobutylamino)-5-(trifluoromethyl)pyrimidin-2-yl]amino}benzenecarbaldehyde] | 3.26 |  |  |  |
| O=Cc1cccc(Nc2ncc(C(F)(F)F)c(NC3CC3)n2)c1 [3-{[4-(Cyclopropylamino)-5-(trifluoromethyl)pyrimidin-2-yl]amino}benzenecarbaldehyde] | 2.73 |  |  |  |
| O=Cc1cccc(Nc2ncc(F)c(NC3CC3)n2)c1 [3-{[4-(Cyclopropylamino)-5-fluoropyrimidin-2-yl]amino}benzenecarbaldehyde] | 1.26 |  |  |  |
| O=Cc1cccc(Nc2ncc(I)c(NC3CC3)n2)c1 [3-{[4-(Cyclopropylamino)-5-iodopyrimidin-2-yl]amino}benzenecarbaldehyde] | 1.96 |  |  |  |
| Cc1cnc(Nc2cccc(C=O)c2)nc1NC1CC1 [3-{[4-(Cyclopropylamino)-5-methylpyrimidin-2-yl]amino}benzenecarbaldehyde] | 1.13 |  |  |  |
| O=Cc1cccc(Nc2ncc(Br)c(NC3CCC3)n2)c1 [3-{[5-Bromo-4-(cyclobutylamino)pyrimidin-2-yl]amino}benzenecarbaldehyde] | 2.35 |  |  |  |
| O=Cc1cccc(Nc2ncc(Br)c(NC3CC3)n2)c1 [3-{[5-Bromo-4-(cyclopropylamino)pyrimidin-2-yl]amino}benzenecarbaldehyde] | 1.93 |  |  |  |
| O=Cc1cccc(Nc2ncc(Cl)c(NC3CCC3)n2)c1 [3-{[5-Chloro-4-(cyclobutylamino)pyrimidin-2-yl]amino}benzenecarbaldehyde] | 2.16 |  |  |  |
| O=Cc1cccc(Nc2ncc(Cl)c(NC3CC3)n2)c1 [3-{[5-Chloro-4-(cyclopropylamino)pyrimidin-2-yl]amino}benzenecarbaldehyde] | 1.82 |  |  |  |
| CC(C)Nc1nc(Nc2cccc(C=O)c2)ncc1Cl [3-{[5-Chloro-4-(isopropylamino)pyrimidin-2-yl]amino}benzaldehyde] | 1.86 |  |  |  |
| C#CCNc1nc(Nc2cccc(C=O)c2)ncc1Cl [3-{[5-Chloro-4-(prop-2-yn-1-ylamino)pyrimidin-2-yl]amino}benzenecarbaldehyde] | 1.74 |  |  |  |
| CC1(C)COC(c2cccc(Nc3ncc(Cl)c(NC4CC4)n3)c2)OC1 [Example 2] |  | 2.45[b] |  |  |
| CC1OC(c2cccc(Nc3ncc(Cl)c(NC4CC4)n3)c2)OC1C (stereo not shown) [Example 3] |  | 2.2[b] |  |  |
| SCCOC(OCCS)c1cccc(Nc2ncc(Cl)c(NC3CC3)n2)c1 [Example 4] |  | 1.36 | 2.03 |  |
| CCC1COC(c2cccc(Nc3ncc(Cl)c(NC4CC4)n3)c2)O1 (stereo not shown) [Example 7] |  | 2.29 | 3.48 |  |

| Compound | chromatographic logP (pH 2.7, logP (pH 2.7)) | log p [b] | log p [c] | other results |
| --- | --- | --- | --- | --- |
| CC1COC(c2cccc(Nc3ncc(Cl)c(NC4CC4)n3)c2)O1 (stereo not shown) [Example 8] |  | 1.9[b] |  |  |
| CC1CC(C)OC(c2cccc(Nc3ncc(Cl)c(NC4CC4)n3)c2)O1 (stereo not shown) [Example 9] |  | 2.26 | 3.51 |  |
| CC1(c2cccc(Nc3ncc(C(F)(F)F)c(NCC4CC4)n3)c2)OCCO1 [Example 10] |  | 3.15[b] | 3.79 | log p [a]: 3.16 |
| CC1(c2cccc(Nc3ncc(C(F)(F)F)c(NC4CC4)n3)c2)OCCO1 [Example 11] |  | 3.03 | 3.46 |  |
| Brc1cnc(Nc2cccc(C3OCCO3)c2)nc1NC1CC1 [Example 13] |  | 1.75 | 2.82 |  |
| Brc1cnc(Nc2cccc(C3OCCCO3)c2)nc1NC1CC1 [Example 15] |  |  | 2.97 |  |
| CC1OC(c2cccc(Nc3ncc(Br)c(NC4CCC4)n3)c2)OC1C (stereo not shown) [Example 17] |  | 2.67 | 4.12 |  |
| Clc1cnc(Nc2cccc(C3OCCO3)c2)nc1NCC1CC1 [Example 18] |  | 1.73 | 3.06 |  |
| CC1(C)COC(c2cccc(Nc3ncc(Cl)c(NC4CCC4)n3)c2)OC1 [Example 19] |  | 2.57[b] | 4.13 | log p [a]: 2.29 |
| Brc1cnc(Nc2cccc(C3OCCO3)c2)nc1NC1CCC1 [Example 20] |  | 2.05 | 3.39 |  |
| CC1(C)COC(c2cccc(Nc3ncc(Br)c(NC4CCC4)n3)c2)OC1 [Example 21] |  | 3 | 4.51 |  |
| CC1(C)COC(c2cccc(Nc3ncc(C(F)(F)F)c(NC4CC4)n3)c2)OC1 [Example 25] |  | 3.7 | 4.07 |  |
| CC1(C)COC(c2cccc(Nc3ncc(C(F)(F)F)c(NC4CCC4)n3)c2)OC1 [Example 26] |  | 4.22 | 4.62 |  |
| Clc1cnc(Nc2cccc(C3OCC(c4ccccc4)O3)c2)nc1NC1CC1 (stereo not shown) [Example 29] |  |  | 3.93[c] |  |
| Clc1cnc(Nc2cccc(C3OCCO3)c2)nc1NC1CCC1 [Example 31] |  | 1.91 | 3.23 |  |
| Clc1cnc(Nc2cccc(C3OC4COCC4O3)c2)nc1NC1CC1 (stereo not shown) [Example 32] |  | 1.55[b] |  |  |
| ClCC1COC(c2cccc(Nc3ncc(Cl)c(NC4CC4)n3)c2)O1 (stereo not shown) [Example 33] |  | 2.19 |  | log p [a]: 1.85 |
| C=CCOCC1COC(c2cccc(Nc3ncc(Cl)c(NC4CC4)n3)c2)O1 (stereo not shown) [Example 34] |  | 2.25 | 3.39 |  |
| Clc1cnc(Nc2cccc(C3SCCCS3)c2)nc1NC1CC1 [Example 35, 5-Chloro-N^4-cyclopropyl-N^2-[3-(1,3-dithian-2-yl)phenyl]pyrimidine-2,4-diamine] | 2.44 |  |  | chromatographic logP (pH 2.7, log p [b]): 2.44; chromatographic logP (pH 7.8, log p [c]): 3.65 |
| COc1ccc(OCC2COC(c3cccc(Nc4ncc(Cl)c(NC5CC5)n4)c3)O2)cc1 (stereo not shown) [Example 36] |  | 2.64 | 3.78 |  |
| O=[N+]([O-])c1ccccc1C1COC(c2cccc(Nc3ncc(Cl)c(NC4CC4)n3)c2)O1 (stereo not shown) [Example 37] |  | 2.89 | 4 |  |
| CCCCCCC1COC(c2cccc(Nc3ncc(Cl)c(NC4CC4)n3)c2)O1 (stereo not shown) [Example 38] |  | 4.14 | 5.29 |  |
| CCCCC1COC(c2cccc(Nc3ncc(Cl)c(NC4CC4)n3)c2)O1 (stereo not shown) [Example 39] |  | 3.16 | 4.4 |  |
| CCN(CC)CC1COC(c2cccc(Nc3ncc(Cl)c(NC4CC4)n3)c2)O1 (stereo not shown) [Example 40, 5-Chloro-N^4-cyclopropyl-N^2-(3-{4-[(diethylamino)methyl]-1,3-dioxolan-2-yl}phenyl)-pyrimidine-2,4-diamine] | 1.05 |  |  | chromatographic logP (pH 2.7, log p [b]): 1.07; chromatographic logP (pH 7.8, log p [c]): 3.9 |
| Clc1cnc(Nc2cccc(C3OCC(CN4CCOCC4)O3)c2)nc1NC1CC1 (stereo not shown) [Example 41] |  |  | 2.54[c] |  |
| OCC1COC(c2cccc(Nc3ncc(Cl)c(NC4CC4)n3)c2)O1 (stereo not shown) [Example 42] |  | 1.16 | 1.96 |  |
| Clc1cnc(Nc2cccc(C3OCC(CN4CCCC4)O3)c2)nc1NC1CC1 (stereo not shown) [Example 43] |  | 0.99[b] |  |  |
